{"source": "patent US20140328762A1", "about": "“Fluorogenic Peptide Probes and Assays” (priority 2011, published 2014)", "key": {"[1]": {"system": "AT DNA", "experiment": "Fluorescence titration of GCN4 beacon with AT DNA (negative control)", "format": "binding", "details": "100 nM beacon", "method": "(§1) Samples contain 100 nM GCN4 225/244 beacon and indicated concentration of DNA.\n(§2) The AP-1 DNA and AT DNA were used for GCN-4 beacons binding assays as the target and control DNAs, respectively. Rex aptamer and TAR RNA were used for Rex beacon binding assays as the target and control RNAs, respectively. For detailed structures of Rex aptamer and TAR RNA, refer to PDB 1EXY and 1MNB, respectively."}, "[2]": {"system": "AP-1 DNA", "experiment": "Absorbance spectra of GCN4 beacons with AP-1 DNA", "format": "binding", "details": "1 μM beacon, 10 μM DNA", "method": "FIGS. 2A and 2B show line graphs of absorbance versus wavelength (nm). […] All samples contain 1 μM beacon, and concentration for DNA is 10 μM.\nas §2\nAs shown by the shifted absorbance peaks (i.e. shift of highest peak) in FIGS. 2A and 2B, both GCN4 225/237 and GCN4 225/244 beacons allow formation of TAMRA H-dimer. […] The GCN4 225/244 beacon was selected for further characterization."}, "[3]": {"system": "AP-1 DNA", "experiment": "Fluorescence titration of GCN4 beacon with AP-1 DNA", "format": "binding", "details": "titration of 100 nM beacon with increasing concentration of AP-1 DNA", "method": "as §1, §2"}, "[4]": {"molecular_target": "E3 peptide", "experiment": "CD spectra analysis of binding between unlabeled K3-b1b3 and E3 peptides", "details": "curve fitting"}, "[5]": {"molecular_target": "E3 peptide", "details": "cited from earlier work"}, "[6]": {"molecular_target": "MBP-E3 (Escherichia coli, UniProt P0AEX9)", "details": "data not shown", "description": "(§3) The application of using the K3-b1b3 beacon for detection of E3-fusion proteins has also been tested. For this purpose, a recombinant maltose binding protein (MBP) with E3 fused at its C-terminal end was created."}, "[7]": {"molecular_target": "T1, unlabeled GCN4 244 (Saccharomyces cerevisiae, UniProt P03069, A244C/S225C)", "T1 construct": "[…]; MKQLEDK; GGSGG linker (internal); made in house; host or cells: E. coli BL21(DE3)", "experiment": "Non-specific fluorescence enhancement (crosstalk) assay, FIG. 14, with unlabeled GCN4 244", "format": "binding, yeast", "details": "100 nM beacon, 10 μM unlabeled GCN4 244, 580 nm, excitation 520 nm", "method": "(§4) FIGS. 14A and 14B show bar graphs of relative fluorescence intensity versus different peptide beacons. Non-specific fluorescence enhancement of peptide beacons by various unrelated coiled coil-forming peptides is shown. All reagents other than the beacons are loaded to 10 μM. The data represent relative fluorescence intensity at 580 nm (bandwidth 20 nm) collected by excitation at 520 nm (band width 15 nm). (FIG. 14A) All samples contain 100 nM K3-b1b3 beacon. Columns A, B, C, D, E are beacon only, beacon with unlabeled JunLZ-Lb1b4, beacon with unlabeled FosLZ, beacon with unlabeled GCN4 244, and beacon with E3 peptide, respectively. […] Column A, B, C, D, E are beacon only, beacon with unlabeled K3-b1b3 peptide, beacon with E3 peptide, beacon with unlabeled GCN4 244, beacon with FosLZ.\n(§5) So a concern about the binding specificity naturally arises. […] It is not a surprising result, since both peptides have leucine residues at all d positions, and that multiple electrostatic interactions exist between […]."}, "[8]": {"system": "unlabeled JunLZ-Lb1b4", "experiment": "Non-specific fluorescence enhancement (crosstalk) assay, FIG. 14A, with unlabeled JunLZ-Lb1b4", "format": "binding", "details": "100 nM beacon, 10 μM unlabeled JunLZ-Lb1b4, 580 nm, excitation 520 nm", "method": "as §4, §5"}, "[9]": {"molecular_target": "wild-type MBP (Escherichia coli, UniProt P0AEX9)", "details": "data not shown", "description": "(§6) All spectra data were obtained with Safire II microplate reader (TECAN). Data was acquired right after mixing the beacon with its target.\nas §3"}, "[10]": {"system": "unrelated coiled coil-forming peptides", "experiment": "Crosstalk of beacon with unrelated peptides, overall", "format": "binding", "details": "FIG. 14", "method": "as §4, §5"}, "[11]": {"molecular_target": "T2, FosLZ (Homo sapiens, UniProt P01100)", "T2 construct": "TDTLQAE TDQLEDE KSALQTE IANLLKE KEKLEFI LA; made in house; host or cells: E. coli BL21(DE3)", "experiment": "Non-specific fluorescence enhancement (crosstalk) assay, FIG. 14, with FosLZ", "format": "binding", "details": "100 nM beacon, 10 μM FosLZ, 580 nm, excitation 520 nm", "method": "as §4, §5"}, "[12]": {"system": "E3 peptide", "experiment": "Non-specific fluorescence enhancement (crosstalk) assay, FIG. 14, with E3 peptide", "format": "binding", "details": "100 nM beacon, 10 μM E3 peptide, 580 nm, excitation 520 nm", "method": "as §4, §5"}, "[13]": {"molecular_target": "E3 peptide", "experiment": "Fluorescence titration of K3-b1b3 beacon with E3 peptide", "format": "binding", "method": "as §6\nTo further characterize the K3-b1b3 beacon, titration of lower concentration (10 nM) of K3-b1b3 beacon has also been performed."}}, "note": "Like-named read-outs stand apart in the source and are kept apart here."}
{"substance": "GCN4 225/244 beacon: GCN4 bZip S225C/A244C (SEQ ID NO: 27), fused to C-terminal end of MBP, TAMRA labelled", "values": [{"measurement": "effect of AT DNA on fluorescence", "setting": "[1]", "result": "no effects"}, {"measurement": "change of absorbance spectrum in the presence of AP-1 DNA", "setting": "[2]", "result": "significant alteration of its absorbance spectrum"}, {"measurement": "maximum fluorescence increase", "setting": "[3]", "result": 4.3, "unit": "fold"}]}
{"substance": "unlabeled modified K3 peptide K ICALKAK IAALKAK ICALKA GY (SEQ ID NO:12) [K3-b1b3]", "values": [{"measurement": "Kd", "setting": "[4]", "result": 45, "unit": "nM"}]}
{"substance": "original K3 peptide K IAALKEK IAALKEK IAALKE (SEQ ID NO:29)", "values": [{"measurement": "Kd", "setting": "[5]; literature value restated in Example 4, read-out: Kd value for binding between the K3 and E3 peptides", "result": 70, "unit": "nM"}, {"measurement": "Kd", "setting": "[5]; reported in the literature, read-out: Kd value for binding between the original K3 and E3 peptides", "result": 70, "unit": "nM"}]}
{"substance": "K ICALKAK IAALKAK ICALKAGY (SEQ ID NO: 12) with two 6-TAMRA fluorophores attached at the cysteines via maleimide [K3-b1b3 beacon]", "values": [{"measurement": "binding by gel-shift assay", "setting": "[6]", "result": "Specific binding"}, {"measurement": "fluorescence enhancement compared with the beacon only sample", "setting": "[7]", "result": 1.2, "unit": "fold"}, {"measurement": "fluorescence enhancement compared with the beacon only sample", "setting": "[8]", "result": 1.5, "unit": "fold"}, {"measurement": "effect on fluorescence emission of the beacon", "setting": "[9]", "result": "does not have effects"}, {"measurement": "non-specific fluorescence enhancement by unrelated peptides", "setting": "[10]", "result": "no significant non-specific fluorescence enhancement"}, {"measurement": "fluorescence enhancement compared with the beacon only sample", "setting": "[11]", "result": 1.6, "unit": "fold"}, {"measurement": "fluorescence enhancement compared with the beacon only sample", "setting": "[12]", "result": 7.0, "unit": "fold"}, {"measurement": "Kd", "setting": "[13]; curve fitting, 1 μM beacon titration, read-out: Kd value for binding between K3-b1b3 beacon and E3 peptide", "result": 766, "unit": "nM"}, {"measurement": "Kd", "setting": "[13]; curve fitting, titration of 10 nM beacon, read-out: Kd value for binding between K3-b1b3 beacon and E3 peptide", "result": 738, "unit": "nM"}, {"measurement": "Kd", "setting": "[13]; read-out: Kd, result of 1 μM beacon titration (restated), 1 μM beacon titration", "result": 766, "unit": "nM"}, {"measurement": "maximum fluorescence enhancement", "setting": "[13]; titration of 1 μM K3-b1b3 beacon with E3 peptide", "result": "about 12 fold"}]}
